# Data published in PubChem BioAssay AID2060614 (Molecular Pharmacology Branch, DTP, NCI, 2025).
# Test system: 598228-144-R-J1-PDC complex spheroids, viability
# Assay: Anticancer human tumor 598228-144-R-J1-PDC patient-derived serous endometrial adenocarcinoma cell line growth inhibition [CLK]
# Settings: for IC50: curve of first compound; for viability, T/C: stronger effect = lower value
# Procedure, shortened: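 Multi-cell-type spheroids combined patient-derived tumor cells with HUVEC endothelial cells and human mesenchymal stem cells. Paired agents were dosed in half-log steps down from about clinical Cmax, or from 10 microM where Cmax was unknown.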
# [1] = second compound 0.0316 µM, first compound 0.0316 µM
# [2] = second compound 0.0316 µM, first compound 0.1 µM
# [3] = second compound 0.0316 µM, first compound 0.316 µM
# [4] = second compound 0.0316 µM, first compound 1 µM
# [5] = second compound 0.0316 µM, first compound 3.16 µM
# [6] = second compound 0.0316 µM, first compound 10 µM
# [7] = second compound 0.1 µM, first compound 0.0316 µM
# [8] = second compound 0.1 µM, first compound 0.1 µM
# [9] = second compound 0.1 µM, first compound 0.316 µM
# [10] = second compound 0.1 µM, first compound 1 µM
# [11] = second compound 0.1 µM, first compound 3.16 µM
# [12] = second compound 0.1 µM, first compound 10 µM
# [13] = second compound 0.316 µM, first compound 0.0316 µM
# [14] = second compound 0.316 µM, first compound 0.1 µM
# [15] = second compound 0.316 µM, first compound 0.316 µM
# [16] = second compound 0.316 µM, first compound 1 µM
# [17] = second compound 0.316 µM, first compound 3.16 µM
# [18] = second compound 0.316 µM, first compound 10 µM
# [19] = second compound 1 µM, first compound 0.0316 µM
# [20] = second compound 1 µM, first compound 0.1 µM
# [21] = second compound 1 µM, first compound 0.316 µM
# [22] = second compound 1 µM, first compound 1 µM
# [23] = second compound 1 µM, first compound 3.16 µM
# [24] = second compound 1 µM, first compound 10 µM
# [25] = second compound 3.16 µM, first compound 0.0316 µM
# [26] = second compound 3.16 µM, first compound 0.1 µM
# [27] = second compound 3.16 µM, first compound 0.316 µM
# [28] = second compound 3.16 µM, first compound 1 µM
# [29] = second compound 3.16 µM, first compound 3.16 µM
# [30] = second compound 3.16 µM, first compound 10 µM
# [31] = second compound 10 µM, first compound 0.0316 µM
# [32] = second compound 10 µM, first compound 0.1 µM
# [33] = second compound 10 µM, first compound 0.316 µM
# [34] = second compound 10 µM, first compound 1 µM
# [35] = second compound 10 µM, first compound 3.16 µM
# [36] = second compound 10 µM, first compound 10 µM
# 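Also: spheroids exposed to compounds for seven days before readout.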
# 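For viability, T/C in this document: 100% = DMSO vehicle control wells.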
compound,measurement,setting,value
C=CC(=O)Nc1cc(Nc2nccc(-c3cn(C)c4ccccc34)n2)c(OC)cc1N(C)CCN(C)C + CNC(=O)c1ccc(Nc2nc(OC3CCCC3)c3c(-c4ccc5nc(C)oc5c4)c[nH]c3n2)c(OC)c1,IC50,second compound 0.0316 µM,> 300 nM
same,IC50,second compound 0.1 µM,> 300 nM
same,IC50,second compound 0.316 µM,> 300 nM
same,IC50,second compound 1 µM,> 300 nM
same,IC50,second compound 3.16 µM,> 300 nM
same,IC50,second compound 10 µM,> 300 nM
same,"viability, T/C","second compound 0.0316 µM, first compound 0.000949 µM",124%
same,"viability, T/C","second compound 0.0316 µM, first compound 0.003 µM",113%
same,"viability, T/C","second compound 0.0316 µM, first compound 0.00949 µM",107%
same,"viability, T/C","second compound 0.0316 µM, first compound 0.03 µM",115%
same,"viability, T/C","second compound 0.0316 µM, first compound 0.0949 µM",101%
same,"viability, T/C","second compound 0.0316 µM, first compound 0.3 µM",105%
same,"viability, T/C","second compound 0.1 µM, first compound 0.000949 µM",120%
same,"viability, T/C","second compound 0.1 µM, first compound 0.003 µM",103%
same,"viability, T/C","second compound 0.1 µM, first compound 0.00949 µM",104%
same,"viability, T/C","second compound 0.1 µM, first compound 0.03 µM",104%
same,"viability, T/C","second compound 0.1 µM, first compound 0.0949 µM",103%
same,"viability, T/C","second compound 0.1 µM, first compound 0.3 µM",78.3%
same,"viability, T/C","second compound 0.316 µM, first compound 0.000949 µM",112%
same,"viability, T/C","second compound 0.316 µM, first compound 0.003 µM",109%
same,"viability, T/C","second compound 0.316 µM, first compound 0.00949 µM",120%
same,"viability, T/C","second compound 0.316 µM, first compound 0.03 µM",93.5%
same,"viability, T/C","second compound 0.316 µM, first compound 0.0949 µM",96.5%
same,"viability, T/C","second compound 0.316 µM, first compound 0.3 µM",77.7%
same,"viability, T/C","second compound 1 µM, first compound 0.000949 µM",104%
same,"viability, T/C","second compound 1 µM, first compound 0.003 µM",90.3%
same,"viability, T/C","second compound 1 µM, first compound 0.00949 µM",90.5%
same,"viability, T/C","second compound 1 µM, first compound 0.03 µM",99%
same,"viability, T/C","second compound 1 µM, first compound 0.0949 µM",91.2%
same,"viability, T/C","second compound 1 µM, first compound 0.3 µM",94.1%
same,"viability, T/C","second compound 3.16 µM, first compound 0.000949 µM",101%
same,"viability, T/C","second compound 3.16 µM, first compound 0.003 µM",102%
same,"viability, T/C","second compound 3.16 µM, first compound 0.00949 µM",80.9%
same,"viability, T/C","second compound 3.16 µM, first compound 0.03 µM",87.6%
same,"viability, T/C","second compound 3.16 µM, first compound 0.0949 µM",82.7%
same,"viability, T/C","second compound 3.16 µM, first compound 0.3 µM",62.3%
same,"viability, T/C","second compound 10 µM, first compound 0.000949 µM",86.5%
same,"viability, T/C","second compound 10 µM, first compound 0.003 µM",86.4%
same,"viability, T/C","second compound 10 µM, first compound 0.00949 µM",86.3%
same,"viability, T/C","second compound 10 µM, first compound 0.03 µM",73.1%
same,"viability, T/C","second compound 10 µM, first compound 0.0949 µM",77.5%
same,"viability, T/C","second compound 10 µM, first compound 0.3 µM",60.7%
CC(Nc1ccc2c(c1)OCCn1cc(N3C(=O)OCC3C(F)F)nc1-2)C(N)=O (stereo not drawn) + CNC(=O)c1ccc(Nc2nc(OC3CCCC3)c3c(-c4ccc5nc(C)oc5c4)c[nH]c3n2)c(OC)c1,IC50,second compound 0.0316 µM,309 nM
same,IC50,second compound 0.1 µM,310 nM
same,IC50,second compound 0.316 µM,248 nM
same,IC50,second compound 1 µM,159 nM
same,IC50,second compound 3.16 µM,145 nM
same,IC50,second compound 10 µM,100 nM
same,"viability, T/C",[1],91.9%
same,"viability, T/C",[2],62.8%
same,"viability, T/C",[3],53.1%
same,"viability, T/C",[4],38.2%
same,"viability, T/C",[5],31.5%
same,"viability, T/C",[6],25.8%
same,"viability, T/C",[7],88.2%
same,"viability, T/C",[8],70.3%
same,"viability, T/C",[9],47%
same,"viability, T/C",[10],35.5%
same,"viability, T/C",[11],35.5%
same,"viability, T/C",[12],22.1%
same,"viability, T/C",[13],77.5%
same,"viability, T/C",[14],58.5%
same,"viability, T/C",[15],51.6%
same,"viability, T/C",[16],32.2%
same,"viability, T/C",[17],26.2%
same,"viability, T/C",[18],22.9%
same,"viability, T/C",[19],75.2%
same,"viability, T/C",[20],56.4%
same,"viability, T/C",[21],37.4%
same,"viability, T/C",[22],32.4%
same,"viability, T/C",[23],23.1%
same,"viability, T/C",[24],12.8%
same,"viability, T/C",[25],69.7%
same,"viability, T/C",[26],58.4%
same,"viability, T/C",[27],33.8%
same,"viability, T/C",[28],26.4%
same,"viability, T/C",[29],21.2%
same,"viability, T/C",[30],13.7%
same,"viability, T/C",[31],70.3%
same,"viability, T/C",[32],50.6%
same,"viability, T/C",[33],33.1%
same,"viability, T/C",[34],22.9%
same,"viability, T/C",[35],18.8%
same,"viability, T/C",[36],12.6%
CCN1CCN(Cc2ccc(Nc3ncc(F)c(-c4cc(F)c5nc(C)n(C(C)C)c5c4)n3)nc2)CC1 + CNC(=O)c1ccc(Nc2nc(OC3CCCC3)c3c(-c4ccc5nc(C)oc5c4)c[nH]c3n2)c(OC)c1,IC50,second compound 0.0316 µM,> 1000 nM
same,IC50,second compound 0.1 µM,> 1000 nM
same,IC50,second compound 0.316 µM,> 1000 nM
same,IC50,second compound 1 µM,> 1000 nM
same,IC50,second compound 3.16 µM,> 1000 nM
same,IC50,second compound 10 µM,> 1000 nM
same,"viability, T/C","second compound 0.0316 µM, first compound 0.00316 µM",104%
same,"viability, T/C","second compound 0.0316 µM, first compound 0.01 µM",114%
same,"viability, T/C",[1],105%
same,"viability, T/C",[2],116%
same,"viability, T/C",[3],112%
same,"viability, T/C",[4],88.8%
same,"viability, T/C","second compound 0.1 µM, first compound 0.00316 µM",110%
same,"viability, T/C","second compound 0.1 µM, first compound 0.01 µM",110%
same,"viability, T/C",[7],126%
same,"viability, T/C",[8],109%
same,"viability, T/C",[9],120%
same,"viability, T/C",[10],97.5%
same,"viability, T/C","second compound 0.316 µM, first compound 0.00316 µM",119%
same,"viability, T/C","second compound 0.316 µM, first compound 0.01 µM",107%
same,"viability, T/C",[13],118%
same,"viability, T/C",[14],99%
same,"viability, T/C",[15],108%
same,"viability, T/C",[16],87.5%
same,"viability, T/C","second compound 1 µM, first compound 0.00316 µM",105%
same,"viability, T/C","second compound 1 µM, first compound 0.01 µM",89.8%
same,"viability, T/C",[19],91.8%
same,"viability, T/C",[20],119%
same,"viability, T/C",[21],106%
same,"viability, T/C",[22],78.6%
same,"viability, T/C","second compound 3.16 µM, first compound 0.00316 µM",95.2%
same,"viability, T/C","second compound 3.16 µM, first compound 0.01 µM",92.5%
same,"viability, T/C",[25],82.3%
same,"viability, T/C",[26],92.5%
same,"viability, T/C",[27],95.8%
same,"viability, T/C",[28],93%
same,"viability, T/C","second compound 10 µM, first compound 0.00316 µM",95.5%
same,"viability, T/C","second compound 10 µM, first compound 0.01 µM",89.4%
same,"viability, T/C",[31],90.2%
same,"viability, T/C",[32],96.8%
same,"viability, T/C",[33],108%
same,"viability, T/C",[34],80.5%
Nc1ccccc1NC(=O)c1ccc(CNC(=O)OCc2cccnc2)cc1 + CNC(=O)c1ccc(Nc2nc(OC3CCCC3)c3c(-c4ccc5nc(C)oc5c4)c[nH]c3n2)c(OC)c1,IC50,second compound 0.0316 µM,1890 nM
same,IC50,second compound 0.1 µM,1930 nM
same,IC50,second compound 0.316 µM,2000 nM
same,IC50,second compound 1 µM,2200 nM
same,IC50,second compound 3.16 µM,1330 nM
same,IC50,second compound 10 µM,1020 nM
same,"viability, T/C",[1],115%
same,"viability, T/C",[2],105%
same,"viability, T/C",[3],101%
same,"viability, T/C",[4],83%
same,"viability, T/C",[5],23.1%
same,"viability, T/C",[6],12.2%
same,"viability, T/C",[7],111%
same,"viability, T/C",[8],97.8%
same,"viability, T/C",[9],91.4%
same,"viability, T/C",[10],79.7%
same,"viability, T/C",[11],28.4%
same,"viability, T/C",[12],7.48%
same,"viability, T/C",[13],111%
same,"viability, T/C",[14],105%
same,"viability, T/C",[15],93%
same,"viability, T/C",[16],66.6%
same,"viability, T/C",[17],39%
same,"viability, T/C",[18],4.74%
same,"viability, T/C",[19],110%
same,"viability, T/C",[20],81.9%
same,"viability, T/C",[21],88.7%
same,"viability, T/C",[22],65%
same,"viability, T/C",[23],45.6%
same,"viability, T/C",[24],6.12%
same,"viability, T/C",[25],91.6%
same,"viability, T/C",[26],86.5%
same,"viability, T/C",[27],70.2%
same,"viability, T/C",[28],55.1%
same,"viability, T/C",[29],34.4%
same,"viability, T/C",[30],4.38%
same,"viability, T/C",[31],100%
same,"viability, T/C",[32],88.9%
same,"viability, T/C",[33],73.3%
same,"viability, T/C",[34],50.5%
same,"viability, T/C",[35],25.8%
same,"viability, T/C",[36],4.15%
